In patent US20240368173A1, “TRICYCLIC GPR65 MODULATORS” (PATHIOS THERAPEUTICS LIMITED, priority 2021, published 2024):

Molecular target: human recombinant GPR65 (Homo sapiens, UniProt Q8IYL9)
Test: Human GPR65 cAMP HTRF antagonist assay
Type: cell-based
Settings: not given
Source text: In one preferred embodiment, the compound prevents the increase in cytoplasmic cAMP levels expected following GPR65 activation at acidic pH. This prevention of cAMP accumulation in turn prevents downstream signalling through ICER, as described above. The “Human GPR65 cyclic adenosine monophosphate (cAMP) Homogeneous Time Resolved Fluorescence (HTRF) antagonist assay”, or simply “cAMP assay”, as described in the accompanying examples, can be used to measure the potency of GPR65 modulators, which is expressed as the concentration of compound required to reduce the increase in cAMP concentration upon GPR65 activation by 50% (i.e. an IC50).
Human GPR65 Cyclic Adenosine Monophosphate (cAMP) Homogeneous Time Resolved Fluorescence (HTRF) Antagonist Assay Procedure
IC50 data was obtained by the following procedure:
1321N1 human astrocytoma cells stably expressing human recombinant GPR65 (1321N1-hrGPR65 cells, EuroscreenFast) were cultured according to the vendor's instructions.
Compounds were tested for their ability to antagonise GPR65, through measuring the concentration of cytoplasmic cAMP following treatment of the cells at a pH of 7.2 to activate GPR65 signalling and addition of the compound to be tested. The extent to which the expected rise in cAMP concentration upon GPR65 activation was suppressed by the added compound is indicative of its potency. The assay was carried out according to EuroscreenFast assay Methodology as follows.
On the day of the assay, test compounds were added to 384-well, low volume, white microtiter plates by acoustic dispensing. KRH buffer (5 mM KCl, 1.25 mM MgSO4, 124 mM NaCl, 25 mM HEPES, 13.3 mM Glucose, 1.25 mM KH2PO4 and 1.45 mM CaCl2) was adjusted to pH 6.5, pH 7.6 and pH 8.4 by adding NaOH. 1321N1-hGPR65 cells were rapidly thawed and diluted in KRH, pH 7.6 prior to centrifugation at 300×g for 5 min and resuspension in assay buffer (KRH, pH 7.6, supplemented with 1 mM 3-isobutyl-1-methylxanthine (IBMX) and 200 μM ethylenediaminetetraacetic acid (EDTA)). Cells were added to assay plates at a density of 2,000 cells per well in a volume of 5 μl. Assay plates were briefly centrifuged at 100×g and then incubated at room temperature for 30 min. Cells were stimulated by the addition of 5 μL KRH, pH 6.5, to achieve an assay pH of 7.2, while control wells received 5 μl KRH, pH 8.4 to achieve an assay pH of 7.9. Assay plates were briefly centrifuged at 100×g and then incubated at room temperature for 30 min.
Accumulation of cAMP was detected by cAMP HTRF kit (Cisbio). d2-labeled cAMP and cryptate-labeled anti-cAMP antibody in Lysis and Detection Buffer (Cisbio) were added to assay plates, and the plates were incubated at room temperature for 1 h. HTRF measurements were performed using a Pherastar FSX instrument. Acceptor and donor emission signals were measured at 665 nm and 620 nm, respectively, and HTRF ratios were calculated as signal665 nm/signal620 nm×10^4. Data were normalised to high and low control values and fitted with 4-parameter logistic regression to determine hGPR65 IC50 values for the test compounds, which are shown in Table 1.

human recombinant GPR65, sequence (Q8IYL9 whole entry): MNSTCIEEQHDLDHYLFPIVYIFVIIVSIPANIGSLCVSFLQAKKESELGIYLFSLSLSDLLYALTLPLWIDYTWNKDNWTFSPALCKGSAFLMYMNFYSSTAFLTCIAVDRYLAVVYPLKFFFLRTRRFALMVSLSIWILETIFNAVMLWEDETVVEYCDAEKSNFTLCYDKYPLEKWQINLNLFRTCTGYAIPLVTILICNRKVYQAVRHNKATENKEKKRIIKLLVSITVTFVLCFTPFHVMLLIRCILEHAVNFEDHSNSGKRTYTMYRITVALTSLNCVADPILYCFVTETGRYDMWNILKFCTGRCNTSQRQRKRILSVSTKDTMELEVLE

| Compound | IC50 |
| --- | --- |
| O=C(Nc1cc(Cl)c(C(F)(F)F)cc1F)N1C2CCC1C(F)c1c2ccnc1F (mixture of isomers) [Compound 226, (±, 9-endo)-N-(5-chloro-2-fluoro-4-(trifluoromethyl)phenyl)-1,9-difluoro-6,7,8,9-tetrahydro-5H-5,8-epiminocyclohepta[c]pyridine-10-carboxamide] | < 500 nM |
| O=C(Nc1cc(Cl)c(C(F)(F)F)cc1F)N1C2CCC1c1n[nH]c(=O)cc1C2 (racemic) [Compound 1, (±)—N-(5-chloro-2-fluoro-4-(trifluoromethyl)phenyl)-3-oxo-3,5,6,7,8,9-hexahydro-2H-6,9-epiminocyclohepta[c]pyridazine-10-carboxamide] | < 500 nM |
| O=C(Nc1cc(Cl)c(Cl)cc1F)N1C2CCC1c1n[nH]c(=O)cc1C2 (racemic) [Compound 2, (±)-N-(4,5-Dichloro-2-fluorophenyl)-3-oxo-3,5,6,7,8,9-hexahydro-2H-6,9-epiminocyclohepta[c]pyridazine-10-carboxamide] | < 500 nM |
| O=C(Nc1ccc(C(F)(F)F)c(Br)c1)N1C2CCC1c1n[nH]c(=O)cc1C2 (racemic) [Compound 3, (±)-N-(3-Bromo-4-(trifluoromethyl)phenyl)-3-oxo-3,5,6,7,8,9-hexahydro-2H-6,9-epiminocyclohepta[c]pyridazine-10-carboxamide] | < 500 nM |
| O=C(Nc1ccc(Br)c(Cl)c1)N1C2CCC1c1n[nH]c(=O)cc1C2 (racemic) [Compound 4, (±)-N-(4-Bromo-3-chlorophenyl)-3-oxo-3,5,6,7,8,9-hexahydro-2H-6,9-epiminocyclohepta[c]pyridazine-10-carboxamide] | < 500 nM |
| O=C(Nc1ccc(Cl)c(Br)c1)N1C2CCC1c1n[nH]c(=O)cc1C2 (racemic) [Compound 5, (±)-N-(3-Bromo-4-chlorophenyl)-3-oxo-3,5,6,7,8,9-hexahydro-2H-6,9-epiminocyclohepta[c]pyridazine-10-carboxamide] | < 500 nM |
| O=C(Nc1cc(Br)c(C(F)(F)F)cc1F)N1C2CCC1c1n[nH]c(=O)cc1C2 (racemic) [Compound 6, (±)-N-(5-Bromo-2-fluoro-4-(trifluoromethyl)phenyl)-3-oxo-3,5,6,7,8,9-hexahydro-2H-6,9-epiminocyclohepta[c]pyridazine-10-carboxamide] | < 500 nM |
| O=C(Nc1cc(Br)c(Cl)cc1F)N1C2CCC1c1n[nH]c(=O)cc1C2 (racemic) [Compound 7, (±)-N-(5-Bromo-4-chloro-2-fluorophenyl)-3-oxo-3,5,6,7,8,9-hexahydro-2H-6,9-epiminocyclohepta[c]pyridazine-10-carboxamide] | < 500 nM |
| O=C(Nc1cc(Cl)c(Br)cc1F)N1C2CCC1c1n[nH]c(=O)cc1C2 (racemic) [Compound 8, (±)-N-(4-Bromo-5-chloro-2-fluorophenyl)-3-oxo-3,5,6,7,8,9-hexahydro-2H-6,9-epiminocyclohepta[c]pyridazine-10-carboxamide] | < 500 nM |
| O=C(Nc1ccc(OC(F)(F)F)c(Cl)c1)N1C2CCC1c1n[nH]c(=O)cc1C2 (racemic) [Compound 9, (±)-N-(3-Chloro-4-(trifluoromethoxy)phenyl)-3-oxo-3,5,6,7,8,9-hexahydro-2H-6,9-epiminocyclohepta[c]pyridazine-10-carboxamide] | < 500 nM |
| O=C(Nc1ccc(Br)c(C(F)(F)F)c1)N1C2CCC1c1n[nH]c(=O)cc1C2 (racemic) [Compound 10, (±)-N-(4-Bromo-3-(trifluoromethyl)phenyl)-3-oxo-3,5,6,7,8,9-hexahydro-2H-6,9-epiminocyclohepta[c]pyridazine-10-carboxamide] | < 500 nM |
| N#Cc1cc(NC(=O)N2C3CCC2c2n[nH]c(=O)cc2C3)ccc1C(F)(F)F (racemic) [Compound 11, (±)-N-(3-Cyano-4-(trifluoromethyl)phenyl)-3-oxo-3,5,6,7,8,9-hexahydro-2H-6,9-epiminocyclohepta[c]pyridazine-10-carboxamide] | < 500 nM |
| O=C(Nc1cc(Br)c(Cl)cc1F)N1C2CCC1c1c[nH]c(=O)nc1C2 (racemic) [Compound 15, (±)—N-(5-Bromo-4-chloro-2-fluorophenyl)-2-oxo-3,5,6,7,8,9-hexahydro-2H-5,8-epiminocyclohepta[d]pyrimidine-10-carboxamide] | < 500 nM |
| O=C(Nc1cc(Cl)c(Br)cc1F)N1C2CCC1c1c[nH]c(=O)nc1C2 (racemic) [Compound 16, (±)-N-(4-bromo-5-chloro-2-fluorophenyl)-2-oxo-3,5,6,7,8,9-hexahydro-2H-5,8-epiminocyclohepta[d]pyrimidine-10-carboxamide] | < 500 nM |
| O=C(Nc1cc(Br)c(C(F)(F)F)cc1F)N1C2CCC1c1c[nH]c(=O)nc1C2 (racemic) [Compound 17, (±)-N-(5-bromo-2-fluoro-4-(trifluoromethyl)phenyl)-2-oxo-3,5,6,7,8,9-hexahydro-2H-5,8-epiminocyclohepta[d]pyrimidine-10-carboxamide] | < 500 nM |
| O=C(Nc1cc(C(F)(F)F)on1)N1C2CCC1c1n[nH]c(=O)cc1C2 (racemic) [Compound 44, (±)-3-Oxo-N-(5-(trifluoromethyl)isoxazole-3-yl)-3,5,6,7,8,9-hexahydro-2H-6,9-epiminocyclohepta[c]pyridazine-10-carboxamide] | < 500 nM |
| O=C(Nc1cc(Cl)c(OC2CCC2)cc1F)N1C2CCC1c1n[nH]c(=O)cc1C2 (racemic) [Compound 51, (±)-N-(5-Chloro-4-cyclobutoxy-2-fluorophenyl)-3-oxo-3,5,6,7,8,9-hexahydro-2H-6,9-epiminocyclohepta[c]pyridazine-10-carboxamide] | < 500 nM |
| O=C(Nc1cc(Cl)c(F)cc1F)N1C2CCC1c1n[nH]c(=O)cc1C2 (racemic) [Compound 52, (±)-N-(5-Chloro-2,4-difluorophenyl)-3-oxo-3,5,6,7,8,9-hexahydro-2H-6,9-epiminocyclohepta[c]pyridazine-10-carboxamide] | < 500 nM |

Same assay, conditions: 1321N1-hrGPR65 cells, cAMP HTRF, assay pH 7.2; read-out: hGPR65 IC50 (Activity of selected compounds according to the invention)

| Compound | IC50 |
| --- | --- |
| O=C(Nc1cc(Cl)c(C(F)(F)F)cn1)N1C2CCC1c1n[nH]c(=O)cc1C2 (racemic) [Compound 12, (±)-N-(4-Chloro-5-(trifluoromethyl)pyridin-2-yl)-3-oxo-3,5,6,7,8,9-hexahydro-2H-6,9-epiminocyclohepta[c]pyridazine-10-carboxamide] | 500 to 5000 nM |
| CC(C)Oc1ccc(NC(=O)N2C3CCC2c2n[nH]c(=O)cc2C3)cc1Cl (racemic) [Compound 13, (±)-N-(3-Chloro-4-isopropoxyphenyl)-3-oxo-3,5,6,7,8,9-hexahydro-2H-6,9-epiminocyclohepta[c]pyridazine-10-carboxamide] | 500 to 5000 nM |
| O=C(Nc1ccc(OC2CCC2)c(Cl)c1)N1C2CCC1c1n[nH]c(=O)cc1C2 (racemic) [Compound 14, (±)-N-(3-Chloro-4-cyclobutoxyphenyl)-3-oxo-3,5,6,7,8,9-hexahydro-2H-6,9-epiminocyclohepta[c]pyridazine-10-carboxamide] | 500 to 5000 nM |
| CO[C@H]1C[C@@H](Oc2ccc(NC(=O)N3C4CCC3c3n[nH]c(=O)cc3C4)cc2Cl)C1 (mixture of isomers) [Compound 36, (±)-N-(3-Chloro-4-((1s,3S)-3-methoxycyclobutoxy)phenyl)-3-oxo-3,5,6,7,8,9-hexahydro-2H-6,9-epiminocyclohepta[c]pyridazine-10-carboxamide] | > 5000 nM |
| N#Cc1cnc(NC(=O)N2C3CCC2c2n[nH]c(=O)cc2C3)cc1Cl (racemic) [Compound 43, (±)-N-(4-Chloro-5-cyanopyridin-2-yl)-3-oxo-3,5,6,7,8,9-hexahydro-2H-6,9-epiminocyclohepta[c]pyridazine-10-carboxamide] | 500 to 5000 nM |
| N#Cc1cc(F)c(NC(=O)N2C3CCC2c2n[nH]c(=O)cc2C3)cc1Cl (racemic) [Compound 53, (±)-N-(5-Chloro-4-cyano-2-fluorophenyl)-3-oxo-3,5,6,7,8,9-hexahydro-2H-6,9-epiminocyclohepta[c]pyridazine-10-carboxamide] | 500 to 5000 nM |
